Assay results reported in ChEMBL document CHEMBL4613209, “Quinolone hybrids and their anti-cancer activities: An overview” (Eur J Med Chem, 2019).

What follows are compounds tested on A549 (assay: Cytotoxicity against human A549 cells assessed as reduction in cell viability after 72 hrs by MTT assay). Settings: A549, 72 h.
Assay type: functional, cell-based

| Structure (SMILES) | IC50 |
| --- | --- |
| O=C(O)c1cn(C2CC2)c2cc(N3CCN(C/C(=N/OCc4ccc(Cl)cc4)c4ccco4)CC3)c(F)cc2c1=O | ≤ 10 µM |
| CCn1cc(C(=O)O)c(=O)c2cc(F)c(N3CCN(C/C(=N/OCc4ccc(Cl)cc4)c4ccco4)CC3)cc21 | ≤ 10 µM |

What follows are compounds tested on MDA-MB-231 (assay: Growth inhibition of human MDA-MB-231 cells after 48 hrs by SRB assay). Settings: MDA-MB-231, 48 h.
Assay type: functional

| Structure (SMILES) | GI50 |
| --- | --- |
| CCn1cc(C(=O)O)c(=O)c2cnc(N3CCN(C(=O)CCSc4nnnn4-c4ccc(F)c(F)c4F)CC3)nc21 | ≤ 0.1 µM |
| O=C(O)c1cn(C2CC2)c2cc(N3CCN(C(=O)CCSc4nnnn4Cc4ccccc4)CC3)c(F)cc2c1=O | ≤ 0.1 µM |
| O=C(O)c1cn(C2CC2)c2cc(N3CCN(C(=O)CCSc4nnnn4-c4ccc(Br)cc4)CC3)c(F)cc2c1=O | ≤ 0.1 µM |
| CCn1cc(C(=O)O)c(=O)c2cnc(N3CCN(C(=O)CCSc4nnnn4Cc4ccccc4)CC3)nc21 | ≤ 0.1 µM |

Each compound was assayed on SK-MEL3 (assay: Cytotoxicity against human SK-MEL-3 cells assessed as reduction in cell viability after 72 hrs by MTT assay). Settings: SK-MEL3, 72 h.
Assay type: functional, cell-based

| Structure (SMILES) | IC50 |
| --- | --- |
| O=C(O)c1cn(C2CC2)c2cc(N3CCN(C/C(=N/OCc4ccc(Cl)cc4)c4ccco4)CC3)c(F)cc2c1=O | ≤ 10 µM |
| CCn1cc(C(=O)O)c(=O)c2cc(F)c(N3CCN(C/C(=N/OCc4ccc(Cl)cc4)c4ccco4)CC3)cc21 | ≤ 10 µM |

These compounds were tested on NCI-H460 (assay: Growth inhibition of human NCI-H460 cells). Settings: pooled result: one value given for 3 cell lines, strains, targets or settings.
Assay type: functional

| Structure (SMILES) | GI50 |
| --- | --- |
| O=c1[nH]c2ccc(F)cc2c2oc3ccccc3c12 | 10.7 to 53.7 µM |
| O=c1[nH]c2ccccc2c2[nH]c(-c3ccccc3)c(-c3ccccc3)c12 | 27.5 µM |
| COc1ccc2c(c1)[nH]c(=O)c1c3ccccc3oc21 | 10.7 to 53.7 µM |
| O=c1[nH]c2ccccc2c2[nH]cc(-c3ccccc3)c12 | 18.2 µM |
| O=c1[nH]c2ccccc2c2[nH]c3ccccc3c12 | 19 µM |
| O=c1[nH]c2ccc(Cl)cc2c2[nH]c3ccccc3c12 | 19 µM |
| COc1ccc2[nH]c(=O)c3c4ccccc4oc3c2c1 | 10.7 to 53.7 µM |

Each compound was assayed on MCF7 (assay: Cytotoxicity against human MCF7 cells assessed as reduction in cell viability after 72 hrs by MTT assay). Settings: MCF7, 72 h.
Assay type: functional, cell-based

| Structure (SMILES) | IC50 |
| --- | --- |
| O=C(O)c1cn(C2CC2)c2cc(N3CCN(C/C(=N/OCc4ccc(Cl)cc4)c4ccco4)CC3)c(F)cc2c1=O | ≤ 10 µM |
| CCn1cc(C(=O)O)c(=O)c2cc(F)c(N3CCN(C/C(=N/OCc4ccc(Cl)cc4)c4ccco4)CC3)cc21 | ≤ 10 µM |

Each compound was assayed on SiHa (assay: Growth inhibition of human SiHa cells after 48 hrs by SRB assay). Settings: not given.
Assay type: functional

| Structure (SMILES) | GI50 |
| --- | --- |
| CCn1cc(C(=O)O)c(=O)c2cnc(N3CCN(C(=O)CCSc4nnnn4-c4ccc(F)c(F)c4F)CC3)nc21 | ≤ 0.1 µM |
| O=C(O)c1cn(C2CC2)c2cc(N3CCN(C(=O)CCSc4nnnn4Cc4ccccc4)CC3)c(F)cc2c1=O | ≤ 0.1 µM |
| O=C(O)c1cn(C2CC2)c2cc(N3CCN(C(=O)CCSc4nnnn4-c4ccc(Br)cc4)CC3)c(F)cc2c1=O | ≤ 0.1 µM |
| CCn1cc(C(=O)O)c(=O)c2cnc(N3CCN(C(=O)CCSc4nnnn4Cc4ccccc4)CC3)nc21 | ≤ 0.1 µM |

What follows are compounds tested on KB (assay: Cytotoxicity against human KB cells assessed as reduction in cell viability after 72 hrs by MTT assay). Settings: not given.
Assay type: functional, cell-based

| Structure (SMILES) | IC50 |
| --- | --- |
| O=C(O)c1cn(C2CC2)c2cc(N3CCN(C/C(=N/OCc4ccc(Cl)cc4)c4ccco4)CC3)c(F)cc2c1=O | ≤ 10 µM |
| CCn1cc(C(=O)O)c(=O)c2cc(F)c(N3CCN(C/C(=N/OCc4ccc(Cl)cc4)c4ccco4)CC3)cc21 | ≤ 10 µM |

These compounds were tested on HT-29 (assay: Anticancer activity against human HT-29 cells by MTT assay). Settings: not given.
Assay type: functional, cell-based

| Structure (SMILES) | IC50 |
| --- | --- |
| CCOC(=O)c1cn(Cc2cn(-c3ccc(C)cc3)nn2)c2ccc(F)cc2c1=O | 13.1 to 88.4 µM |
| CCOC(=O)c1cn(Cc2cn(-c3ccc(Cl)cc3)nn2)c2ccc(C)cc2c1=O | 13.1 to 88.4 µM |
| CCOC(=O)c1cn(Cc2cn(-c3ccc(Cl)cc3)nn2)c2ccc(Cl)cc2c1=O | 13.1 to 88.4 µM |
| CCOC(=O)c1cn(Cc2cn(-c3ccc([N+](=O)[O-])cc3)nn2)c2ccc(Cl)cc2c1=O | 13.1 to 88.4 µM |
| CCOC(=O)c1cn(Cc2cn(-c3ccc(C)cc3)nn2)c2ccc(Cl)cc2c1=O | 13.1 to 88.4 µM |

The compounds below were run on A 172 (assay: Cytotoxicity against human A172 cells assessed as reduction in cell viability after 72 hrs by MTT assay). Settings: A 172, 72 h.
Assay type: functional, cell-based

| Structure (SMILES) | IC50 |
| --- | --- |
| O=C(O)c1cn(C2CC2)c2cc(N3CCN(C/C(=N/OCc4ccc(Cl)cc4)c4ccco4)CC3)c(F)cc2c1=O | ≤ 10 µM |
| CCn1cc(C(=O)O)c(=O)c2cc(F)c(N3CCN(C/C(=N/OCc4ccc(Cl)cc4)c4ccco4)CC3)cc21 | ≤ 10 µM |

The compounds below were run on ACHN (assay: Cytotoxicity against human ACHN cells assessed as reduction in cell viability after 72 hrs by MTT assay). Settings: not given.
Assay type: functional, cell-based

| Structure (SMILES) | IC50 |
| --- | --- |
| O=C(O)c1cn(C2CC2)c2cc(N3CCN(C/C(=N/OCc4ccc(Cl)cc4)c4ccco4)CC3)c(F)cc2c1=O | ≤ 10 µM |
| CCn1cc(C(=O)O)c(=O)c2cc(F)c(N3CCN(C/C(=N/OCc4ccc(Cl)cc4)c4ccco4)CC3)cc21 | ≤ 10 µM |

Each compound was assayed on HepG2 (assay: Anticancer activity against human HepG2 cells by MTT assay). Settings: not given.
Assay type: functional, cell-based

| Structure (SMILES) | IC50 |
| --- | --- |
| CCOC(=O)c1cn(Cc2cn(-c3ccc(C)cc3)nn2)c2ccc(F)cc2c1=O | 13.1 to 88.4 µM |
| CCOC(=O)c1cn(Cc2cn(-c3ccc(Cl)cc3)nn2)c2ccc(C)cc2c1=O | 13.1 to 88.4 µM |
| CCOC(=O)c1cn(Cc2cn(-c3ccc(Cl)cc3)nn2)c2ccc(Cl)cc2c1=O | 13.1 to 88.4 µM |
| CCOC(=O)c1cn(Cc2cn(-c3ccc([N+](=O)[O-])cc3)nn2)c2ccc(Cl)cc2c1=O | 13.1 to 88.4 µM |
| CCOC(=O)c1cn(Cc2cn(-c3ccc(C)cc3)nn2)c2ccc(Cl)cc2c1=O | 13.1 to 88.4 µM |

What follows are compounds tested on A2780 (assay: Cytotoxicity against human A2780 cells assessed as reduction in cell viability after 72 hrs by MTT assay). Settings: A2780, 72 h.
Assay type: functional, cell-based

| Structure (SMILES) | IC50 |
| --- | --- |
| O=C(O)c1cn(C2CC2)c2cc(N3CCN(C/C(=N/OCc4ccc(Cl)cc4)c4ccco4)CC3)c(F)cc2c1=O | ≤ 10 µM |
| CCn1cc(C(=O)O)c(=O)c2cc(F)c(N3CCN(C/C(=N/OCc4ccc(Cl)cc4)c4ccco4)CC3)cc21 | ≤ 10 µM |

These compounds were tested on HL-60 (assay: Anticancer activity against human HL60 cells by MTT assay). Settings: not given.
Assay type: functional, cell-based

| Structure (SMILES) | IC50 |
| --- | --- |
| CCOC(=O)c1cn(Cc2cn(-c3ccc(C)cc3)nn2)c2ccc(F)cc2c1=O | 13.1 to 88.4 µM |
| CCOC(=O)c1cn(Cc2cn(-c3ccc(Cl)cc3)nn2)c2ccc(C)cc2c1=O | 13.1 to 88.4 µM |
| CCOC(=O)c1cn(Cc2cn(-c3ccc(Cl)cc3)nn2)c2ccc(Cl)cc2c1=O | 13.1 to 88.4 µM |
| CCOC(=O)c1cn(Cc2cn(-c3ccc([N+](=O)[O-])cc3)nn2)c2ccc(Cl)cc2c1=O | 13.1 to 88.4 µM |
| CCOC(=O)c1cn(Cc2cn(-c3ccc(C)cc3)nn2)c2ccc(Cl)cc2c1=O | 13.1 to 88.4 µM |
